Measured values published in ChEMBL document CHEMBL5291721, “A preclinical secondary pharmacology resource illuminates target-adverse drug reaction associations of marketed drugs” (Nat Commun, 2023).

Legend:
[1] = target: Beta-1 adrenergic receptor (Homo sapiens, UniProt P08588); type: functional
[2] = target: Growth hormone secretagogue receptor type 1 (Homo sapiens, UniProt Q92847)
[3] = target: T1, 5-hydroxytryptamine receptor 2C (Homo sapiens, UniProt P28335)
T1 sequence (P28335 whole entry): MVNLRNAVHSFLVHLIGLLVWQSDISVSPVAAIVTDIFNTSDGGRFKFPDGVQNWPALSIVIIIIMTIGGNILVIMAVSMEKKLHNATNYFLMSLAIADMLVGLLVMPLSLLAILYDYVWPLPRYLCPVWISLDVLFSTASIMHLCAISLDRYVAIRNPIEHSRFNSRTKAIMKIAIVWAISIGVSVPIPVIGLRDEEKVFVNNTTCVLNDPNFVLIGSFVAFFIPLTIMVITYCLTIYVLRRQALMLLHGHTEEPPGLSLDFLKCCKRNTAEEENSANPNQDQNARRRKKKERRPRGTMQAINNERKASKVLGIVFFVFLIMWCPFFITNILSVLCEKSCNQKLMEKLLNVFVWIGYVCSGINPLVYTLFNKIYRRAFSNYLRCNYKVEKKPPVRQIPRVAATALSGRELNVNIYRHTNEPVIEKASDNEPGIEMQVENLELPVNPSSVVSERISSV

Adenosine receptor A3 [4] = target: T2, Adenosine receptor A3 (Homo sapiens, UniProt P0DMS8)
T2 sequence (P0DMS8 whole entry): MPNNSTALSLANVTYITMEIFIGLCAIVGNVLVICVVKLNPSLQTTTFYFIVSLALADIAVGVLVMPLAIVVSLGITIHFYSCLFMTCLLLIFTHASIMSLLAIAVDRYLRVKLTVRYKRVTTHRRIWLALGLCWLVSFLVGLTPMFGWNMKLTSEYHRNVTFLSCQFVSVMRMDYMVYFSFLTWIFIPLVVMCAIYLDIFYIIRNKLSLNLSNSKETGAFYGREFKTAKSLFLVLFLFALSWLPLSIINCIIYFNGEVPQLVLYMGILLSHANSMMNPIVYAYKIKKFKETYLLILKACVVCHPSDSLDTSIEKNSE

[5] = target: Delta-type opioid receptor (Homo sapiens, UniProt P41143)
Delta-type opioid receptor, sequence (P41143 whole entry): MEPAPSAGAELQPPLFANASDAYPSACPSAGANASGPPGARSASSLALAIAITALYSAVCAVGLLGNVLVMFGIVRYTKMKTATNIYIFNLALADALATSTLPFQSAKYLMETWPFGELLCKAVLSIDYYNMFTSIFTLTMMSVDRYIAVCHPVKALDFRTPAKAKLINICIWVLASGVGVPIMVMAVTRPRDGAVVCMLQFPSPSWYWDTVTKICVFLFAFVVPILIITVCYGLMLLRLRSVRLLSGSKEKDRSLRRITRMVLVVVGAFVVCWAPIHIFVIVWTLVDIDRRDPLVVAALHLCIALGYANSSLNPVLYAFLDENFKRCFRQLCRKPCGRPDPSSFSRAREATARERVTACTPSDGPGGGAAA

[6] = target: T3, Type-1 angiotensin II receptor (Homo sapiens, UniProt P30556)
T3 sequence (P30556 whole entry): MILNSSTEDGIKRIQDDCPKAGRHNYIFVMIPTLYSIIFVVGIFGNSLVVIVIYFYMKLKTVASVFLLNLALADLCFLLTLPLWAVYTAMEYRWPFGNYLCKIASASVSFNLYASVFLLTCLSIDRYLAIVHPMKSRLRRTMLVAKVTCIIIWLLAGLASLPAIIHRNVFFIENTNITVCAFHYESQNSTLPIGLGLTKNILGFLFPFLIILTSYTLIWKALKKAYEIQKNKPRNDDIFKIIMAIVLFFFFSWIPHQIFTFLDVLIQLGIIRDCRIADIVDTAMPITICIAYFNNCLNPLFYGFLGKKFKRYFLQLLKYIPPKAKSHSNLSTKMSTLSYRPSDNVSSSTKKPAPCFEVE

[7] = target: Gamma-aminobutyric acid receptor subunit alpha-1 (Rattus norvegicus, UniProt P62813)
Gamma-aminobutyric acid receptor subunit alpha-1, sequence (P62813 whole entry): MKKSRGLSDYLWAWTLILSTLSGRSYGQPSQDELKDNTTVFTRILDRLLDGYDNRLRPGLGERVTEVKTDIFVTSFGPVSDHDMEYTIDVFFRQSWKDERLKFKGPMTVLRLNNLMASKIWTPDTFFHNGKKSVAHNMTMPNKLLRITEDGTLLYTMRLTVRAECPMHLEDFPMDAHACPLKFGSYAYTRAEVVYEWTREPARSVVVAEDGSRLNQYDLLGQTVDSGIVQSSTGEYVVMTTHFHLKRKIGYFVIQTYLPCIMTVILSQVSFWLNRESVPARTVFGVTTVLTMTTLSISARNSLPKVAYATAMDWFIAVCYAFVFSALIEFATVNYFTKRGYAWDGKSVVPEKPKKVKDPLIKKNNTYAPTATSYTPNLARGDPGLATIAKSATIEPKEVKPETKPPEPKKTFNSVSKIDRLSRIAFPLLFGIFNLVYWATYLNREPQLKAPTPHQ

[8] = target: Kappa-type opioid receptor (Homo sapiens, UniProt P41145)
Kappa-type opioid receptor, sequence (P41145 whole entry): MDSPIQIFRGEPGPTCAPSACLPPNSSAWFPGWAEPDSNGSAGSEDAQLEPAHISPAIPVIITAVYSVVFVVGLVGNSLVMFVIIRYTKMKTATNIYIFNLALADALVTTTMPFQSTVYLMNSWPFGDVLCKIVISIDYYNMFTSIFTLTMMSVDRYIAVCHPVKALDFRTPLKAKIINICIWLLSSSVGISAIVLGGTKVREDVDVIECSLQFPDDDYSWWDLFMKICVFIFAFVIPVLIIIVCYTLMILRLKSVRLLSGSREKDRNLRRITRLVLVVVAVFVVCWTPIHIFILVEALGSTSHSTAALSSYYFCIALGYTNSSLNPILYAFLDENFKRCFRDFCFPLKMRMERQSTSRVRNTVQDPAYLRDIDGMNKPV

Thromboxane A2 receptor = target: T4, Thromboxane A2 receptor (Homo sapiens, UniProt P21731)
T4 sequence (P21731 whole entry): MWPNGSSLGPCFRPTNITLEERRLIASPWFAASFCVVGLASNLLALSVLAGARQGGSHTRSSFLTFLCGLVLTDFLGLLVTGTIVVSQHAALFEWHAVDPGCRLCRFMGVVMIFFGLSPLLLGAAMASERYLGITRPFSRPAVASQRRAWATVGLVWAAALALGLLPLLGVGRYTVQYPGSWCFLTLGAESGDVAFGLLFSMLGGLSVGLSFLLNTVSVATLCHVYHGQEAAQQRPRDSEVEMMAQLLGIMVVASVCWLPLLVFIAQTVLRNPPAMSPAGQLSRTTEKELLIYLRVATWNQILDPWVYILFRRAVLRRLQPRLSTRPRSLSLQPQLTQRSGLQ

Motilin receptor = Motilin receptor (Homo sapiens, UniProt O43193)
Motilin receptor, sequence (O43193 whole entry): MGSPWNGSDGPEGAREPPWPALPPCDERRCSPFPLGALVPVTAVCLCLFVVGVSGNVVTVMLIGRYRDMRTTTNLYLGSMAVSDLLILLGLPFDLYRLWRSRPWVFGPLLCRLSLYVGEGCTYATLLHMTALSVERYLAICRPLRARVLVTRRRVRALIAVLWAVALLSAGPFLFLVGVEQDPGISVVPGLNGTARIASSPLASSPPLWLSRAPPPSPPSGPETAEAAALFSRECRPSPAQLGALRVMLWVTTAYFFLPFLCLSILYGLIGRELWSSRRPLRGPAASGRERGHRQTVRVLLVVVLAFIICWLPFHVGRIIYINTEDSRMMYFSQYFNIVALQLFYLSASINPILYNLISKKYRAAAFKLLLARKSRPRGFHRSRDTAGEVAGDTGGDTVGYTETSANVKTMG

Adenosine receptor A3 [9] = target: T2, Adenosine receptor A3; remark: listed apart in the source
Adenosine receptor A2a = Adenosine receptor A2a (Homo sapiens, UniProt P29274)
Adenosine receptor A2a, sequence (P29274 whole entry): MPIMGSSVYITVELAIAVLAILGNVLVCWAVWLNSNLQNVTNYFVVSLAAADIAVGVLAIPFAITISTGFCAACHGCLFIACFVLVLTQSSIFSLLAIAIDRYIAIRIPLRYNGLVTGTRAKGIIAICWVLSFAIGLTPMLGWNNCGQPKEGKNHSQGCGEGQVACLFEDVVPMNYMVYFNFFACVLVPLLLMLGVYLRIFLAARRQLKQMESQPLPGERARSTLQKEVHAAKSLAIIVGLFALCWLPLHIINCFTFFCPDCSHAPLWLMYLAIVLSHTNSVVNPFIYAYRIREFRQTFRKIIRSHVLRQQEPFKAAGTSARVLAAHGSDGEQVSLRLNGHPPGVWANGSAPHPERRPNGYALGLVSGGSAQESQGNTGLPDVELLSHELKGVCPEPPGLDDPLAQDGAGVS

[10] = target: T5, Amine oxidase [flavin-containing] A (Homo sapiens, UniProt P21397); type: functional
T5 sequence (P21397 whole entry): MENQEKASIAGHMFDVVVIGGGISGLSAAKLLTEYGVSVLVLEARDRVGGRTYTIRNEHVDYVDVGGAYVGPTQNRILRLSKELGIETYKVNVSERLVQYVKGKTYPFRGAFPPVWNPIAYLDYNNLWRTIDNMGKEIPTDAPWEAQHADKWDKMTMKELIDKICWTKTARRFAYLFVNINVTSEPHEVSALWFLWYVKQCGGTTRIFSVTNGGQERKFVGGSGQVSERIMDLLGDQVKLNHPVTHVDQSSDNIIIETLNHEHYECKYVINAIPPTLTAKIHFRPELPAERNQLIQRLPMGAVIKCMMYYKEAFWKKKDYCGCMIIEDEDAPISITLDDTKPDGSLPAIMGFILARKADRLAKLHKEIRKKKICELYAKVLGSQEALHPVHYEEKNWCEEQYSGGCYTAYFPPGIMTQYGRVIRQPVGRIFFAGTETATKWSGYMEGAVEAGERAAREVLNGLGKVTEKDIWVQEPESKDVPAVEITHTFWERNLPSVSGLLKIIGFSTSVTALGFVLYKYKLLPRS

[11] = target: T6, 5-hydroxytryptamine receptor 1A (Homo sapiens, UniProt P08908); type: functional, cell-based
T6 sequence (P08908 whole entry): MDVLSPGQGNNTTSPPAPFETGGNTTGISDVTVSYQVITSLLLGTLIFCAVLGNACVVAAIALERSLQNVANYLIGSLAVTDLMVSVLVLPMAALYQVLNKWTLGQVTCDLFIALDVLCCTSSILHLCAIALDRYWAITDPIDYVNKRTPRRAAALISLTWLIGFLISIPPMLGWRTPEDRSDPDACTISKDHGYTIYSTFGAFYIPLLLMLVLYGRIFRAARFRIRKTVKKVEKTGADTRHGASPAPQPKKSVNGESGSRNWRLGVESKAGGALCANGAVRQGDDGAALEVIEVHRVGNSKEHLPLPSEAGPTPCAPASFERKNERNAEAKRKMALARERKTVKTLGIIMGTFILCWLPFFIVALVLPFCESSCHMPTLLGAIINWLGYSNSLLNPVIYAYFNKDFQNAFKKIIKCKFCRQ
Further: assay procedure not described here.

Beta-1 adrenergic receptor, sequence (P08588 whole entry): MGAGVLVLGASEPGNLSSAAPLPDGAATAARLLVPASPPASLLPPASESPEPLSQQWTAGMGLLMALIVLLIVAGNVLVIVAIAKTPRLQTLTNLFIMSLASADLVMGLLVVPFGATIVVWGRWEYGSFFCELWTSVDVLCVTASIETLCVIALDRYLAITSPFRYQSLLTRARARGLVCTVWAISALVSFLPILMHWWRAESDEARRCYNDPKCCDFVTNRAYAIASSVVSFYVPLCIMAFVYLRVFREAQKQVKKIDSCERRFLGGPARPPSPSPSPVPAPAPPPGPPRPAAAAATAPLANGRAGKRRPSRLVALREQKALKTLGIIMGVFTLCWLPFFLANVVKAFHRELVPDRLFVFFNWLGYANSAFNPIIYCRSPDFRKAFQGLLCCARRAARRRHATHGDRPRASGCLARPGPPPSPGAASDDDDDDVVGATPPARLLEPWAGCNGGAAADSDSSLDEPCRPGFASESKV
Growth hormone secretagogue receptor type 1, sequence (Q92847 whole entry): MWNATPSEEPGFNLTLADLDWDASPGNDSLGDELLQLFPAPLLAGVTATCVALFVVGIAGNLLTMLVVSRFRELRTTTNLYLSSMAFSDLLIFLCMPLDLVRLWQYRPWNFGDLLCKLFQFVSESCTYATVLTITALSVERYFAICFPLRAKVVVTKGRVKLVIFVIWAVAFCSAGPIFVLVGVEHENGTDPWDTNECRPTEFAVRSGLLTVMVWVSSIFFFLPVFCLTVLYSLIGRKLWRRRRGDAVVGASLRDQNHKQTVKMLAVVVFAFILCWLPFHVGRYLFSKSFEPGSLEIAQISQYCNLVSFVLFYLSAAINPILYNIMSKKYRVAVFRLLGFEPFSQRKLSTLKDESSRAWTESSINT

In the case of `C[C@]1(COc2ccc(N3CCC(Oc4ccc(OC(F)(F)F)cc4)CC3)cc2)Cn2cc([N+](=O)[O-])nc2O1`, the AC50 [1] was over 10 µM, the AC50 [2] was over 30 µM and the AC50 [3] was over 30 µM. For the same molecule, the AC50 (Adenosine receptor A3 [4]) was over 30 µM, the AC50 [5] was over 30 µM and the AC50 [6] was over 30 µM. For the same molecule, the AC50 [7] was over 30 µM, the AC50 [8] was over 10 µM and the AC50 (Thromboxane A2 receptor) was over 30 µM. The AC50 (Motilin receptor) was over 10 µM.
For `CC(C1=C(CCN(C)C)Cc2ccccc21)c1ccccn1` (stereo not given), the AC50 [7] was over 30 µM and the AC50 (Adenosine receptor A3 [9]) was over 30 µM.
`CC(=O)OC(C)OC(=O)C(C)c1ccc(-c2ccccc2)c(F)c1` (stereo not given) was tested, and the AC50 [7] was over 30 µM and the AC50 (Adenosine receptor A3 [9]) was over 30 µM.
With `CC(=O)OCC[N+](C)(C)C` [ACETYLCHOLINE] the AC50 (Adenosine receptor A2a) was over 30 µM, the AC50 [1] was over 30 µM and the AC50 [2] was over 30 µM. For the same molecule, the AC50 [3] was over 30 µM, the AC50 (Adenosine receptor A3 [4]) was over 30 µM and the AC50 [10] was over 10 µM. For the same molecule, the AC50 [5] was over 10 µM, the AC50 [6] was over 30 µM and the AC50 [7] was over 30 µM. The AC50 [8] was over 10 µM, the AC50 (Thromboxane A2 receptor) was over 30 µM and the AC50 (Motilin receptor) was over 30 µM. The AC50 [11] was 0.15 µM.
For `C[C@H](N)C(=O)O` [ALANINE], the AC50 [7] was over 30 µM and the AC50 (Adenosine receptor A3 [9]) was over 30 µM.
Molecule `O=C1c2c(O)cccc2Cc2cccc(O)c21` [ANTHRALIN] has an AC50 [7] of over 3 µM and an AC50 (Adenosine receptor A3 [9]) of over 3 µM.
Work on `CNC(=O)C[C@@H](N)C(=O)N[C@@H](C(=O)N[C@@H]1C(=O)N2[C@@H]1SC(C)(C)[C@@H]2C(=O)O)c1ccc(O)cc1` [ASPOXICILLIN] yielded an AC50 [7] of over 30 µM and an AC50 (Adenosine receptor A3 [9]) of over 30 µM.
`O=C(Nc1nc(-c2cc(Cl)cs2)c(N2CCN(C3CCCCC3)CC2)s1)c1cnc(N2CCC(C(=O)O)CC2)c(Cl)c1` [AVATROMBOPAG] showed an AC50 (Adenosine receptor A2a) of over 10 µM, an AC50 [1] of over 10 µM and an AC50 [2] of over 10 µM. For the same molecule, the AC50 [3] was over 10 µM, the AC50 (Adenosine receptor A3 [4]) was over 10 µM and the AC50 [5] was over 10 µM. It also gave an AC50 [6] of over 10 µM, an AC50 [7] of over 30 µM and an AC50 [8] of over 10 µM. It also gave an AC50 (Thromboxane A2 receptor) of over 10 µM and an AC50 (Motilin receptor) of over 10 µM.
With `COC(=O)C1=C(C)NC(C)=C(C(=O)O[C@H]2CCN(Cc3ccccc3)C2)[C@H]1c1cccc([N+](=O)[O-])c1` [BARNIDIPINE] the AC50 [7] was over 30 µM and the AC50 (Adenosine receptor A3 [9]) was 4.65 µM.
`CCCCOc1ccc(CC(=O)NO)cc1` [BUFEXAMAC] was tested, and the AC50 [7] was over 30 µM and the AC50 (Adenosine receptor A3 [9]) was over 30 µM.
With `Cc1nnc(SCC2=C(C(=O)O)N3C(=O)[C@@H](NC(=O)Cn4cc(Cl)c(=O)c(Cl)c4)[C@H]3SC2)s1` [CEFAZEDONE] the AC50 [7] was over 30 µM and the AC50 (Adenosine receptor A3 [9]) was over 30 µM.
`CO/N=C(\C(=O)N[C@@H]1C(=O)N2C(C(=O)[O-])=C(C[n+]3cccc4c3CCC4)CS[C@H]12)c1csc(N)n1` [CEFPIROME] gave an AC50 [3] of over 30 µM, an AC50 [10] of over 30 µM and an AC50 [5] of over 30 µM. It also gave an AC50 [7] of over 30 µM, an AC50 [8] of over 30 µM and an AC50 [11] of over 30 µM.
`Nc1ncnc(Nc2ccc(Cl)cc2)n1` [CHLORAZANIL] showed an AC50 [7] of over 30 µM and an AC50 (Adenosine receptor A3 [9]) of 7.95 µM.
`CCC[C@@H]1C[C@@H](C(=O)N[C@@H]([C@H]2O[C@H](SC)[C@H](OP(=O)(O)O)[C@@H](O)[C@H]2O)[C@H](C)Cl)N(C)C1` [CLINDAMYCIN PHOSPHATE] showed an AC50 [7] of over 30 µM and an AC50 (Adenosine receptor A3 [9]) of over 30 µM.
